Source: patent US5756510A, “Benzamide analogs useful as PARP (ADP-ribosyltransferase, ADPRT) DNA repair enzyme inhibitors” (Newcastle University Ventures Limited, priority 1994, dated 1998)
Read-outs that look alike come from different tables or passages of the source.

Target: T1, PARP (Mus musculus, UniProt P11103)
T1 construct: endogenous in cells; host or cells: L1210 murine leukaemia cells, permeabilised by hypotonic buffer and cold shock
Assay: PARP inhibition assay ([32P]-NAD incorporation into TCA-precipitated poly(ADP-ribose) in permeabilised L1210 cells, oligonucleotide activated)
Assay type: biochemical, L1210 murine leukaemia cells
Description: In principle, the PARP assay used relies upon activating endogenous PARP (as hereinafter described) in cells containing exogenous [^32 P]-NAD^+ introduced therein by suspending the cells in a solution of [^32 P]-NAD^+ to which they have been rendered permeable in an initial pretreatment step. The poly(ADP-ribose) which is then synthesised by the enzyme can be precipitated by trichloracetic acid (TCA) and the amount of radio-labelled ^32 p incorporated therein measured, e.g. using a scintillation counter, to give a measure of the activity of the PARP under the particular conditions of the experiment. By repeating the experiment following the same procedure, and under the same conditions, in the presence of each compound to be tested the reduction in enzyme activity, representative of the inhibitory effect of the test compound, can then be ascertained from the reduction, if any, of the amount of [^32 P] measured in the TCA precipitated poly(ADP-ribose).
Thus, with a range of different compounds a set of comparative values for inhibitory activity can be obtained.
In practice, L1210 murine leukaemia cells were used as the source of the PARP enzyme after being rendered permeable to exogenous [^32 P]NAD by exposure to hypotonic buffer and cold shock. […] This oligonucleotide sequence snaps back on itself to form a double-stranded molecule with a single blunt end and provides an effective substrate for activation of PARP.
The experimental protocol adopted, in which a synthetic oligonucleotide as mentioned above is introduced as a specific activator of PARP, discriminates between PARP and other mono-ADP-ribosyltransferases in the cells.
The oligonucleotide having the palindromic sequence […], synthesised by conventional means, was vacuum dried and stored as pellets in a freezer. Before use, it was made up to 200 μg/ml in 10 mM Tris/HCl, pH 7.8, with each pellet being dissolved completely in […] of buffer. The solution was then heated to 60° C. in a water bath for 15 minutes, and allowed to cool slowly to ensure correct reannealing. After adding 9.5 ml of buffer, the concentration was checked by measuring the optical density of a diluted sample at 260 nm. The main solution was then diluted to a concentration of 200 μg/ml and stored in 500 μl aliquots in a freezer, ready for use.
The L1210 cells used as the source of the PARP enzyme were maintained as a suspension culture in RPMI medium+10% foetal bovine serum+glutamine and antibiotics (penicillin and streptomycin). HEPES and sodium bicarbonate were also added, and the cells were seeded in 100 ml of medium such that there would be a concentration of approximately 8×10^5 /ml at the time of carrying out an assay.
The solubility of the compound was then checked by adding a quantity of the DMSO solution to a quantity of the isotonic buffer, in the required final proportions that were to be used in carrying out the assay, and after an interval the solution was examined under a microscope for any signs of crystals forming.
A desired quantity of the cells, ascertained by counting with a haemocytometer, was then centrifuged (1500 rpm in a "Europa" model 24M centrifuge for 5 minutes), the supernatant removed, and the pellets obtained were resuspended in 20 ml Dul A at 4° C. before centrifuging again at 1500 rpm and 4° C. After again removing the supernatant, the cells were resuspended at a concentration of 3×10^7 cells/ml in ice cold hypotonic buffer and left for 30 minutes on ice. Nine volumes were then added of ice cold isotonic buffer, and the cells, now rendered permeable to exogenous NAD^+, were then used within the next hour for carrying out an assay.

[1] = 10 μM, read-out: % Inhibition (PARP)
[2] = 30 μM, read-out: % Inhibition (PARP)
[3] = 100 μM, read-out: % Inhibition (PARP)

T1 sequence (P11103 whole entry): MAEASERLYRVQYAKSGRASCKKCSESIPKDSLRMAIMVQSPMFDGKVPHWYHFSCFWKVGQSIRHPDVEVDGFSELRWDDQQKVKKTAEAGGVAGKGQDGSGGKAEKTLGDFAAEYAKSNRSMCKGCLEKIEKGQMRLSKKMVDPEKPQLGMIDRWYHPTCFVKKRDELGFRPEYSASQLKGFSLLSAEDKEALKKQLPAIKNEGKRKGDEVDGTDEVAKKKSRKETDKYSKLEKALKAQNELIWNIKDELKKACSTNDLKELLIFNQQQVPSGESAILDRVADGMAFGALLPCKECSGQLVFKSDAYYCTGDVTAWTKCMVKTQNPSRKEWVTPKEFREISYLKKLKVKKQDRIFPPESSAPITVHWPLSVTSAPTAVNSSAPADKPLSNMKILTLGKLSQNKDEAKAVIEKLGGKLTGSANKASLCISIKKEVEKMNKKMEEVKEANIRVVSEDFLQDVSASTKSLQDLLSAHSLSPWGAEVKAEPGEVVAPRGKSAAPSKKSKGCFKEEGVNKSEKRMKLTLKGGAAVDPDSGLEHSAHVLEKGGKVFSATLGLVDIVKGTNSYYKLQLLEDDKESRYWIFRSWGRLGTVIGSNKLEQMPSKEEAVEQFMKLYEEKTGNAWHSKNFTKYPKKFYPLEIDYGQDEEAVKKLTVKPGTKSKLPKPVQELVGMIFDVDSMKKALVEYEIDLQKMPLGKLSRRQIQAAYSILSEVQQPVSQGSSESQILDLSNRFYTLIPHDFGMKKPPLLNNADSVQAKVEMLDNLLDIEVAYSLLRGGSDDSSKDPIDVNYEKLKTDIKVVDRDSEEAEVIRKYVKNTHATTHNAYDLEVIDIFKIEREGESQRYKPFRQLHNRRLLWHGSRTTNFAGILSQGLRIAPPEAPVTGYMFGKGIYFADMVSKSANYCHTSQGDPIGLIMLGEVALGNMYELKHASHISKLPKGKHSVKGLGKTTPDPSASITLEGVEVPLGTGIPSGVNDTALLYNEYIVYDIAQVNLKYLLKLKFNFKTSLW

| inhibition at 10 µM [1] | inhibition at 30 µM [2] | inhibition at 100 µM [3] | IC50 | PARP inhibitory activity in words | Molecule | other results |
| --- | --- | --- | --- | --- | --- | --- |
| 30% |  |  |  |  | NC(=O)c1cccc(OCCCCCCCCn2cnc3c(N)ncnc32)c1 [NU1022, 3-(8-adenos-9-yloctyloxy)benzamide] |  |
|  |  |  | 530 nM | potent PARP inhibitors | O=c1[nH]c(-c2ccccc2)nc2c(O)cccc12 [NU1068, 8-Hydroxy-2-phenylquinazolin-4-[3H]-one] |  |
| 18% | 45% | 66% |  |  | CCCCCOc1cccc(C(N)=O)c1 [NU1039, 3-pentyloxybenzamide] |  |
| 40% | 66% | 84% |  |  | NC(=O)c1cccc(OCc2ccc(N)cc2)c1 [NU1016, 3-(4-aminobenzyloxy)benzamide] |  |
|  |  |  | 4200 nM |  | COc1cccc2c(=O)[nH]c(-c3ccccc3)nc12 [NU1065, 8-Methoxy-2-phenylquinazolin-4-[3H]-one] |  |
| 3% | 13% | 10% |  |  | NC(=O)c1cccc(OCc2ccc(C(F)(F)F)cc2)c1 [NU1036, 3-(4-Trifluoromethylbenzyloxy)benzamide] |  |

Second part, the molecule before the results:

| Molecule | inhibition at 10 µM [1] | inhibition at 30 µM [2] | inhibition at 100 µM [3] | IC50 | PARP inhibitory activity in words | other results |
| --- | --- | --- | --- | --- | --- | --- |
| [N-]=[N+]=Nc1ccc(COc2cccc(C(N)=O)c2)cc1 [NU1013, 3-(4-Azidobenzyloxy)benzamide] |  |  |  |  |  | inhibition at 10 µM (read-out: % Inhibition (PARP), 10 μM): 49%; inhibition at 30 µM (read-out: % Inhibition (PARP), 30 μM): 28%; inhibition at 100 µM (read-out: % Inhibition (PARP), 100 μM): 43% |
| NC(=O)c1cccc(OCCCCCn2cnc3c(N)ncnc32)c1 [NU1024, 3-(5-Adenos-9-ylpentyloxy)benzamide] | 16% | 42% | 67% |  |  |  |
| Cc1nc2c(C(N)=O)cccc2o1 [NU1056, 2-Methylbenzoxazole-4-carboxamide] |  |  |  | 9500 nM | relatively high inhibitory activity even at low concentrations |  |
| NC(=O)c1cccc(OCCCCCCCCCCCCn2cnc3c(N)ncnc32)c1 [NU1029, 3-(12-adenos-9-yldodecyloxy)benzamide] | 26% | 51% | 74% |  |  |  |
| COc1cccc2c(=O)[nH]c(C)nc12 [NU1063, 8-Methoxy-2-methylquinazolin-4-[3H]-one] |  |  |  | 780 nM | potent PARP inhibitors |  |
| NC(=O)c1cccc(O)c1 [3-hydroxybenzamide, reference compound] | 35% | 59% | 81% |  |  |  |
| COc1ccc(-c2nc3c(C(N)=O)cccc3o2)cc1 [NU1054, 2-(4-Methoxyphenyl)benzoxazole-4-carboxamide] |  |  |  | 1100 nM | relatively high inhibitory activity even at low concentrations |  |
| O=c1[nH]cnc2c(O)cccc12 [NU1026, 8-hydroxyquinazolin-4-[3H]one] | 78% | 87% | 95% |  | quite strong PARP inhibitory activity | inhibition at 0.5 µM (0.5 μM): 18%; inhibition at 1 µM (1 μM (1.0 μM)): 38%; inhibition at 2 µM (2.0 μM): 54%; IC50 (unit printed broken, attached to the next cell): 2000 nM |
| NC(=O)c1cccc(OCCCCCn2cnc3c(Cl)ncnc32)c1 [NU1023, 3-[5-(6-Chloropurin-9-yl)pentyloxy]benzamide] | 26% | 45% | 71% |  |  |  |
| NC(=O)c1cccc2oc(-c3ccccc3)nc12 [NU1051, 2-Phenylbenzoxazole-4-carboxamide] | 82% |  |  | 2100 nM | relatively high inhibitory activity even at low concentrations |  |
| CGGAATTCCG: small synthetic single strand oligonucleotide having the palindromic sequence CGGAATTCCG (chemistry not given here) [reference compound] |  |  |  |  |  | activation of PARP in words: potent activator of the enzyme |
| NC(=O)c1cccc(OCc2ccc3c(c2)OCO3)c1 [NU1020, 3-(Piperonyloxy)benzamide] | 51% | 70% | 93% |  |  |  |
| Cc1nc2c(C)cccc2c(=O)[nH]1 [NU1069, 2,8-Dimethylquinazolin-4-[3H]-one] |  |  |  | 200 nM | potent PARP inhibitors |  |
